From publication PMC3628605, “Glucose-6-phosphate dehydrogenase regulation in the hepatopancreas of the anoxia-tolerant marine mollusc, Littorina littorea” (PeerJ, 2013)

Columns and labels:
[1] = tested on: T1, G6PDH, hepatopancreas, 24 h anoxic (low phosphate form); experiment: spectrophotometric NADPH production at […] nm; format: biochemical, Littorina littorea; conditions: pH 8.0, 50 mM Tris-HCl, 22 °C
T1 construct: gene G6PD; native enzyme in Sephadex G-50 filtered hepatopancreas extract of 24 h anoxic snails; low phosphate form, same gene product as P1; not purified for kinetics

[2] = tested on: T2, G6PDH, hepatopancreas, aerobic control (high phosphate form); experiment: spectrophotometric NADPH production at […] nm; format: biochemical, Littorina littorea; conditions: pH 8.0, 50 mM Tris-HCl, 22 °C
T2 construct: gene G6PD; native enzyme in Sephadex G-50 filtered hepatopancreas extract of aerobic control snails (bought at Kowloon Market, Ottawa); serine-phosphorylated, high phosphate form; not purified for kinetics

| Km ([1]; optimal G6P (4 mM)) [µM] | Km ([2]; optimal G6P (4 mM)) [µM] | Km ([1]; optimal NADP+ (1.0 mM)) [µM] | Km ([2]; optimal NADP+ (1.0 mM)) [µM] | Structure (SMILES) |
| --- | --- | --- | --- | --- |
| 115 ± 8 | 117 ± 6 |  |  | NC(=O)c1ccc[n+]([C@@H]2O[C@H](COP(=O)(O)OP(=O)(O)OC[C@H]3O[C@@H](n4cnc5c(N)ncnc54)[C@H](OP(=O)(O)O)[C@@H]3O)[C@@H](O)[C@H]2O)c1 [NADP^+] |
|  |  | 60 ± 3 | 97 ± 6 | O=P(O)(O)OC[C@H]1OC(O)[C@H](O)[C@@H](O)[C@@H]1O (stereo partly shown) [G6P] |
